Experimental data taken from patent publication US8895035B2, “Alkoxyimino derivative and pest control agent” (Kumiai Chemical Industry Co., Ltd, priority 2010, dated 2014).

Key:
Format in all cases: in vivo
[1] = system: Nilaparvata lugens Stál (brown rice planthopper); assay: Insecticidal action test for Nilaparvata lugens Stál (immersed sprouting rice); settings: 144 h, 500 ppm active ingredient, sprouting unhulled rice immersed, 3-age larvae, 25° C., after 6 days, read-out: insect mortality
Description: A wettable powder prepared based on Formulation Example 2 was diluted with water so that the concentration of active ingredient became 500 ppm. In the diluted formulation were immersed sprouting unhulled rice. The immersed rice was placed in a plastic cup of 60 ml. Into the plastic cup were released 10 3-age larvae of Nilaparvata lugens Stál (brown rice planthopper). The cup was covered with a cap and placed in a thermostat of 25° C. After 6 days, the number of living insects was counted and the mortality of insect was calculated using the calculation formula of Mathematical Expression 1.

[2] = system: Brown planthopper (Nilaparvata lugens); assay: Trial of systematic insecticidal activity against brown planthopper; settings: 144 h, 1,800 ppm active ingredient, 250 μl poured to rice-plant foot of rice seedlings, 3-age larvae, 25° C., after 6 days, read-out: insect mortality
Description: A wettable powder prepared based on Formulation Example 2 was diluted with water so that the concentration of active ingredient became 1,800 ppm. 250 μl of the diluted formulation was poured to the rice-plant foot of 2.5-leaf age rice seedlings planted in a paper pot of 1.5 cm (length)×1.5 cm (width)×3 cm (height). Then, the paper pot was placed in a plastic cup of 700 ml. Into the plastic cup were released 5 3-age larvae of Nilaparvata lugens Stál (brown rice planthopper). The cup was covered with a cap and placed in a thermostat of 25° C. After 6 days, the number of living insects was counted and the mortality of insect was calculated using the calculation formula of Mathematical Expression 1.

[3] = system: Aphis gossipii Glover (cotton aphid, melon aphid); assay: Insecticidal action test for Aphis gossipii Glover (drench); settings: soil, 72 h, 500 ppm active ingredient, 5 ml drenched to foot of cucumber seedlings with hatchlings, 25° C., after 3 days, read-out: insect mortality
Description: A wettable powder prepared based on Formulation Example 2 was diluted with water so that the concentration of active ingredient became 500 ppm. 5 ml of the resulting diluted formulation was drenched to the […] foot of cucumber seedlings on which the hatchlings of Aphis gossipii Glover were parasitic. The resulting cucumber seedlings were placed in a thermostat of 25° C. After 3 days, the number of living insects was calculated and the mortality of insect was calculated using the calculation formula of Mathematical Expression 1.

[4] = system: Aphis gossipii Glover (cotton aphid, melon aphid); assay: Insecticidal action test for Aphis gossipii Glover (seedling immersion); settings: 72 h, 500 ppm active ingredient, cucumber seedlings with hatchlings immersed, 25° C., after 3 days, read-out: insect mortality
Description: A wettable powder prepared based on Formulation Example 2 was diluted with water so that the concentration of active ingredient became 500 ppm. In the resulting liquid were immersed cucumber seedlings on which the hatchlings of Aphis gossipii Glover were parasitic, after which the cucumber seedlings were dried in the air. The resulting cucumber seedlings were placed in a thermostat of 25° C. After 3 days, the number of living insects was calculated and the mortality of insect was calculated using the calculation formula of the following Mathematical Expression 1. Insect mortality (%)=[1−(number of living insects)/(number of tested insects)]×100 [Mathematical Expression 1]

| Structure (SMILES) | mortality at 500 ppm [1] | mortality at 1800 ppm [2] | mortality at 500 ppm [3] | mortality at 500 ppm [4] |
| --- | --- | --- | --- | --- |
| CC(C)ON=C(Cl)C(=NOC(C)C)n1cncn1 [I-4, 1-(2-chloro-1,2-diisopropoxyiminoethyl)-1H-1,2,4-triazole] | ≥ 90% | ≥ 90% | ≥ 90% | ≥ 90% |
| CC(C)ON=C(C#N)C(=NOC(C)C)n1cncn1 [I-50, 1-(2-cyano-1,2-diisopropoxyiminoethyl)-1H-1,2,4-triazole] | ≥ 90% | ≥ 90% | – | ≥ 90% |
| CC(C)ON=C(C(N)=O)C(=NOC(C)C)n1cncn1 [I-73, 1-(2-carbamoyl-1,2-diisopropoxyiminoethyl)-1H-1,2,4-triazole] | ≥ 90% | – | – | – |
| CC(C)CON=C(N)C(=NOC(C)C)n1cncn1 [I-121, 1-(2-amino-2-isobutoxyimino-1-isopropoxyiminoethyl)-1H-1,2,4-triazole] | ≥ 90% | – | – | ≥ 90% |
| CC(C)ON=C(Br)C(=NOC(C)C)n1cncn1 [I-142, 1-(2-bromo-1,2-diisopropoxyiminoethyl)-1H-1,2,4-triazole] | ≥ 90% | ≥ 90% | – | ≥ 90% |
| COC(=NOC(C)C)C(=NOC(C)C)n1cncn1 [I-165, 1-(1,2-diisopropoxyimino-2-methoxyethyl)-1H-1,2,4-triazole] | ≥ 90% | ≥ 90% | – | ≥ 90% |
| CC(C)ON=C(C(=NOC(C)C)n1cncn1)n1cncn1 [I-212, 1,2-diisopropoxyimino-1,2-bis(1H-1,2,4-triazol-1-yl)ethane] | ≥ 90% | – | – | ≥ 90% |
| CC(C)ON=C(C(=NOC(C)C)n1cncn1)c1nnn[nH]1 [I-213, 1-[1,2-diisopropoxyimino-2-(1H-tetrazol-5-yl)ethyl]-1H-1,2,4-triazole] | ≥ 90% | – | – | – |
| CSC(=NOC(C)C)C(=NOC(C)C)n1cncn1 [I-228, 1-(2-methylthio-1,2-diisopropoxyiminoethyl)-1H-1,2,4-triazole] | ≥ 90% | ≥ 90% | – | ≥ 90% |
| CC(=NOC(C)C)C(=NOC(C)C)n1ccnc1 [I-273, 1-(1,2-diisopropoxyiminopropyl)imidazole] | ≥ 90% | ≥ 90% | – | ≥ 90% |
| CON=C(C(=NOC(C)C)C(=O)OC)n1cncn1 [II-221, 1-(2-isopropoxyimino-2-methoxycarbonyl-1-methoxyiminoethyl)-1H-1,2,4-triazole] | ≥ 90% | – | – | ≥ 90% |
| CCSC(=O)C(=NOC(C)C)C(=NOC)n1cncn1 [II-222, S-ethyl 2-isopropoxyimino-3-methoxyimino-3-(1H-1,2,4-triazol-1-yl)propanethioate] | ≥ 90% | – | – | ≥ 90% |
| CON=C(C(=NOC(C)C)C(N)=S)n1cncn1 [II-224, 1-(2-isopropoxyimino-2-thiocarbamoyl-1-methoxyiminoethyl)-1H-1,2,4-triazole] | ≥ 90% | ≥ 90% | – | ≥ 90% |
| CCCCON=C(C#N)C(=NOCC)n1cncn1 [III-51, 1-(2-n-butoxyimino-2-cyano-1-ethoxyiminoethyl)-1H-1,2,4-triazole] | ≥ 90% | – | – | ≥ 90% |
| CCCCON=C(C(N)=O)C(=NOCC)n1cncn1 [III-74, 1-(2-n-butoxyimino-2-carbamoyl-1-ethoxyiminoethyl)-1H-1,2,4-triazole] | ≥ 90% | – | – | – |
| CCCON=C(C#N)C(=NOCCC)n1cncn1 [IV-90, 1-[2-cyano-1,2-bis(n-propoxyimino)ethyl]-1H-1,2,4-triazole] | ≥ 90% | – | – | ≥ 90% |
| CCCON=C(C(N)=O)C(=NOCCC)n1cncn1 [IV-101, 1-[2-carbamoyl-1,2-bis(n-propoxyimino)ethyl]-1H-1,2,4-triazole] | ≥ 90% | ≥ 90% | – | – |
| N#CC(=NOCC(F)(F)C(F)(F)F)C(=NOCC(F)(F)F)n1cncn1 [IV-185, 1-[2-cyano-2-(2,2,3,3,3-pentafluoro-n-propoxyimino)-1-(2,2,2-trifluoroethoxyimino)ethyl]-1H-1,2,4-triazole] | ≥ 90% | – | – | – |
| CC(=NOC(C)C)C(=NOC(C)C)n1ccnc1S [V-10, 1-(1,2-diisopropoxyiminopropyl)-2-mercaptoimidazole] | ≥ 90% | – | – | ≥ 90% |
